Broadly, the IC50 is the point on the concentration scale where inhibition reaches its midpoint.

For experiment [1], the system named is MDA-MB-231D3H2LN/GFP-Luc mammary carcinoma cells. Briefly: Lung metastasis after tail vein injection of TNBC cells. Type of experiment: in vivo, NSG mice. Conditions: 25 mg/kg twice a day. The method, then:
Mice injected with MDA-MB-231D3H2LN/GFP-Luc mammary carcinoma cells and treated with vehicle or EX67 (25 mg/kg b.i.d.) over the course of 14 days were injected with D-luciferin (150 mg/kg) IP 10 minutes before being imaged. Whole-body imaging was performed on an Optix MX2 Small Animal Molecular Imager to measure the total photon count for each animal±SEM. n=10 for vehicle and n=10 for EX67 group.
The cellular program of epithelial to mesenchymal transition (EMT) is utilized by tumor cells to metastasize. The effect of EX67 on lung metastases was evaluated in a TNBC model.
NSG mice were injected in the tail vein with 500 000 MDA-MB-231D3H2LN/GFP-Luc mammary carcinoma cells. Mice were treated with Vehicle or 25 mg/kg EX67 twice a day. Metastases to the lung were evaluated by in vivo imaging after 3 weeks. Lung metastases were also evaluated macroscopically at the day of culling (see FIG. 14).
After 14 days, lung metastases were detected in 10/10 mice treated with Vehicle and 7/10 mice treated with EX67.

The target in a further experiment is T1, Akt2 (Homo sapiens, UniProt P31751).
T1 construct: unspecified tag, removed (detagged) (cleaved yes); purchased SignalChem and Proteros (Akt2); Merck Millipore (PDK1) 14-452 (PDK1); none given for Akt2
Description: Akt activation assay (PDK1-mediated activation, LANCE Ultra crosstide TR-FRET), Akt2. Type of experiment: biochemical. The settings on record: read-out: Biological Assay 1 IC50 (nM) Akt2. The method in brief:
(§1)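 Human Akt1, Akt2 or Akt3 (SignalChem: 5, 15, 3 nM; Proteros: 5 nM each) was preincubated with compound, then activated by 5 nM PDK1 on PtdIns(3,4,5)P3/DOPS/DOPC vesicles with 100 µM ATP and 100 nM ULight-crosstide (HEPES pH 7.5, 1% DMSO) for 30 min. Product was detected by Eu-anti-phospho-crosstide TR-FRET (665/615 nm), with IC50 from a 4-parameter fit.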
(Time-resolved FRET reads energy transfer from a long-lived donor to a nearby acceptor.)

The target of another experiment is T2, p-Akt3 in WM115 cells (Homo sapiens, UniProt Q9Y243).
T2 construct: SureFire assays to detect cellular p-Akt1, p-Akt2 and p-Akt3 levels in WM115 cells (Akt2/3) and LNCaP cells (Akt1); endogenous in cells; host or cells: WM115 (ECACC 91061232), insulin-stimulated
Description: Phospho-Akt cellular SureFire assay, p-Akt3 in WM115 cells. Type of experiment: cell-based. Conditions: insulin stimulated, read-out: Biological Assay 2 IC50 (nM) Akt3 WM115. The method in brief: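 WM115 cells were serum-reduced to 0.1% FBS, stimulated with 100 nM insulin for 10 min, then exposed to compound (0.3% DMSO) for 15 min at 37 °C. Lysates were assayed for Thr308-phosphorylated Akt3 by AlphaScreen SureFire using an isoform-specific total Akt3 capture antibody. IC50 was derived from a 4-parameter fit.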

The target of another experiment is T3, Akt1 (Homo sapiens, UniProt P31749).
T3 construct: unspecified tag, removed (detagged) (cleaved yes); purchased SignalChem and Proteros (Akt1); Merck Millipore (PDK1) 14-452 (PDK1); none given for Akt1
Briefly: Akt activation assay (PDK1-mediated activation, LANCE Ultra crosstide TR-FRET), Akt1. It is filed as biochemical. The settings on record: read-out: Biological Assay 1 IC50 (nM) Akt1. The method in brief: as §1

The target of the next experiment is T4, p-Akt2 in WM115 cells (Homo sapiens, UniProt P31751).
T4 construct: SureFire assays to detect cellular p-Akt1, p-Akt2 and p-Akt3 levels in WM115 cells (Akt2/3) and LNCaP cells (Akt1); endogenous in cells; host or cells: WM115 (ECACC 91061232), insulin-stimulated
Description: Phospho-Akt cellular SureFire assay, p-Akt2 in WM115 cells. Type of experiment: cell-based. Conditions: insulin stimulated, read-out: Biological Assay 2 IC50 (nM) Akt2 WM115. A digest of the protocol:
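WM115 cells in 0.1% FBS medium stimulated 10 min with 100 nM insulin, then exposed to compound for 15 min at 37° C (0.3% DMSO final). Lysates assayed by AlphaScreen with anti-(pThr308)Akt and isoform-specific total Akt2 antibodies; IC50 from 4-parameter fit.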

Another experiment concerns the target T5, Akt3 (Homo sapiens, UniProt Q9Y243).
T5 construct: unspecified tag, removed (detagged) (cleaved yes); purchased SignalChem and Proteros (Akt3); Merck Millipore (PDK1) 14-452 (PDK1); none given for Akt3
Description: Akt activation assay (PDK1-mediated activation, LANCE Ultra crosstide TR-FRET), Akt3. It is filed as biochemical. The settings on record: read-out: Biological Assay 1 IC50 (nM) Akt3. A digest of the protocol: as §1

In another experiment the target is T6, p-Akt1 in LNCaP cells (Homo sapiens, UniProt P31749).
T6 construct: SureFire assays to detect cellular p-Akt1, p-Akt2 and p-Akt3 levels in WM115 cells (Akt2/3) and LNCaP cells (Akt1); endogenous in cells; host or cells: LNCaP (ECACC 89110211)
Briefly: Phospho-Akt cellular SureFire assay, p-Akt1 in LNCaP cells. Type of experiment: cell-based. The settings on record: read-out: Biological Assay 2 IC50 (nM) Akt1 LNCaP. A digest of the protocol:
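LNCaP cells, 5×10^4/well, seeded overnight, switched to 0.1% FBS medium without insulin stimulation, then compound for 15 min at 37 °C (0.3% DMSO). Lysate p-Akt1 (pThr308) by AlphaScreen SureFire, two 2 h incubations at room temperature; IC50 by 4-parameter fit.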

T3 sequence (P31749 whole entry): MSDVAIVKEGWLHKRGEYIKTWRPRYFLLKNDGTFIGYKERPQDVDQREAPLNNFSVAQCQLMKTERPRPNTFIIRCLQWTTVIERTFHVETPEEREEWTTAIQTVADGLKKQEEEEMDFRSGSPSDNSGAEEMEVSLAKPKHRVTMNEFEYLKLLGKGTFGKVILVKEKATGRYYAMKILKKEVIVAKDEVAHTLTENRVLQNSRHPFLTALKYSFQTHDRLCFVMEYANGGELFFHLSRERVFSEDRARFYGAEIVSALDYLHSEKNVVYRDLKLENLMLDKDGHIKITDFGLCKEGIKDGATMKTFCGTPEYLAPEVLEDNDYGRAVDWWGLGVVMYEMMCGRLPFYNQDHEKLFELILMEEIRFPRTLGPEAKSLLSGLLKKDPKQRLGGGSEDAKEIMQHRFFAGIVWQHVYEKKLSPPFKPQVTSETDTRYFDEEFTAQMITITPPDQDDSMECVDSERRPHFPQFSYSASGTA
T6 sequence (P31749 whole entry): as above
T2 sequence (Q9Y243 whole entry): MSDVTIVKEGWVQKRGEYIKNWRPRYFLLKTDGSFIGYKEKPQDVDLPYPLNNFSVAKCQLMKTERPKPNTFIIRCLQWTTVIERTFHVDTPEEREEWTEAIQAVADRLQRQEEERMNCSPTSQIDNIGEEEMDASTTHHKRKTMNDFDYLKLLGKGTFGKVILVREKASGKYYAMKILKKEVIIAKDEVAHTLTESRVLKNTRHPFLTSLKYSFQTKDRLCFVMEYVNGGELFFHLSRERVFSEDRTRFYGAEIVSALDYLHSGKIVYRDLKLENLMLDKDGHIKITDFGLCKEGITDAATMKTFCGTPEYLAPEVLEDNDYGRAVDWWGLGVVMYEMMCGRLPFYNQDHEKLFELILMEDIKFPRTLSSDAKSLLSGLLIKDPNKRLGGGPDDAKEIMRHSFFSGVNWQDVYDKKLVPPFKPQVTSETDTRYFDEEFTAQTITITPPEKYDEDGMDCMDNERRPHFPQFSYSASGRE
T5 sequence (Q9Y243 whole entry): as above
T1 sequence (P31751 whole entry): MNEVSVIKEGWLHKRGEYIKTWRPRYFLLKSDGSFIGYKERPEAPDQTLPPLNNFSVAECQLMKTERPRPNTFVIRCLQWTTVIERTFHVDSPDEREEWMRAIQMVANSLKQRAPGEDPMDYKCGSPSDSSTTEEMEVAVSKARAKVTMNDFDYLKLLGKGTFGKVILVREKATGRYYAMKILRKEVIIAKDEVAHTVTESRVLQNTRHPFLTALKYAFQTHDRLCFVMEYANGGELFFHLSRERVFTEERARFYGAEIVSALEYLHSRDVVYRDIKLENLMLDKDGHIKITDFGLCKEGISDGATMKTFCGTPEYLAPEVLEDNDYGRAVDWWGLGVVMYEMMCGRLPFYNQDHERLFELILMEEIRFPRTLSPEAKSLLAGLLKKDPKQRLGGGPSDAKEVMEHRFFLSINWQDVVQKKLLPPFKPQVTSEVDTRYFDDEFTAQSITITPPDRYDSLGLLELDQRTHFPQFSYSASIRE
T4 sequence (P31751 whole entry): as above

As to `COC(=O)N(C)[C@H]1CC[C@H](CC(=O)Nc2cc(-c3ccccc3)c(-c3ccc([C@]4(N)C[C@](C)(O)C4)cc3)cn2)CC1` [EX67], the lung metastases entry in experiment [1] is given as “prevented metastases compared to vehicle-treated mice in a sub-set of animals”. In addition, in experiment [1] (after 14 days, vehicle 10/10), the “mice with lung metastases detected” value was 7/10.
In the case of `CCOC(=O)N(C)[C@H]1CC[C@H](CC(=O)Nc2cnc(-c3ccc(C(C)(C)N)cc3)c(-c3ccccc3)c2)CC1` [Example A99, Ethyl (trans-4-(2-((6-(4-(2-aminopropan-2-yl)phenyl)-5-phenylpyridin-3-yl)amino)-2-oxoethyl)cyclohexyl)(methyl)carbamate], the IC50 is 3000 nM at Akt2; 440 nM at p-Akt3 in WM115 cells; more than 27000 nM at Akt1; 7800 nM at p-Akt2 in WM115 cells; 130 nM at Akt3; more than 30000 nM on p-Akt1 in LNCaP cells.
As for `COC(=O)N(C)[C@H]1CC[C@H](CC(=O)Nc2cc(-c3ccsc3)c(-c3ccc(C4(N)CC4)c(F)c3)nn2)CC1` [Example A100, Methyl (trans-4-(2-((6-(4-(1-aminocyclopropyl)-3-fluorophenyl)-5-(thiophen-3-yl)pyridazin-3-yl)amino)-2-oxoethyl)cyclohexyl)(methyl)carbamate], the concentration for half-maximal inhibition (IC50) is more than 30000 nM on Akt2; 1400 nM on p-Akt3 in WM115 cells; more than 30000 nM on Akt1; more than 30000 nM at p-Akt2 in WM115 cells; 520 nM at Akt3; more than 30000 nM at p-Akt1 in LNCaP cells.
Turning to `CCC(=O)N(C)[C@H]1CC[C@H](CC(=O)Nc2cc(-c3ccsc3)c(-c3ccc(C4(N)CC4)c(F)c3)nn2)CC1` [Example A101, N-(trans-4-(2-((6-(4-(1-aminocyclopropyl)-3-fluorophenyl)-5-(thiophen-3-yl)pyridazin-3-yl)amino)-2-oxoethyl)cyclohexyl)-N-methylpropionamide], the IC50 is 11000 nM at Akt2; 350 nM at p-Akt3 in WM115 cells; more than 30000 nM on Akt1; more than 30000 nM at p-Akt2 in WM115 cells; 140 nM at Akt3; more than 30000 nM on p-Akt1 in LNCaP cells.
For `CCC(=O)N(C)[C@H]1CC[C@H](CC(=O)Nc2cc(-c3ccccc3)c(-c3ccc(C4(N)CC4)c(F)c3)nn2)CC1` [Example A103, N-(trans-4-(2-((6-(4-(1-aminocyclopropyl)-3-fluorophenyl)-5-phenylpyridazin-3-yl)amino)-2-oxoethyl)cyclohexyl)-N-methylpropionamide], the concentration for half-maximal inhibition (IC50) on Akt2 was 2300 nM; on p-Akt3 in WM115 cells, 730 nM; at Akt1, more than 30000 nM; on p-Akt2 in WM115 cells, more than 30000 nM; on Akt3, 110 nM; at p-Akt1 in LNCaP cells, more than 30000 nM.
For `COC(=O)N(C)[C@H]1CC[C@H](CC(=O)Nc2cc(-c3ccccc3)c(-c3ccc(C4(N)CC4)c(F)c3)nn2)CC1` [Example A104, Methyl (trans-4-(2-((6-(4-(1-aminocyclopropyl)-3-fluorophenyl)-5-phenylpyridazin-3-yl)amino)-2-oxoethyl)cyclohexyl)(methyl)carbamate], the half-inhibitory concentration (IC50) was 5600 nM on Akt2; 1000 nM at p-Akt3 in WM115 cells; more than 30000 nM at Akt1; more than 30000 nM at p-Akt2 in WM115 cells; 200 nM at Akt3; more than 30000 nM on p-Akt1 in LNCaP cells.
Consider `COC(=O)N(C(C)C)[C@H]1CC[C@H](CC(=O)Nc2cc(-c3ccccc3)c(-c3ccc([C@]4(N)C[C@](C)(O)C4)cc3)cn2)CC1` [Example A105, Methyl (trans-4-(2-((5-(4-(trans-1-amino-3-hydroxy-3-methylcyclobutyl)phenyl)-4-phenylpyridin-2-yl)amino)-2-oxoethyl)cyclohexyl)(isopropyl)carbamate], for which the IC50 was 220 nM at Akt2; 300 nM at p-Akt3 in WM115 cells; more than 15000 nM at Akt1; 5100 nM at p-Akt2 in WM115 cells; 20 nM on Akt3; 9000 nM at p-Akt1 in LNCaP cells.
For `CCC(=O)N(C(C)C)[C@H]1CC[C@H](CC(=O)Nc2cc(-c3ccccc3)c(-c3ccc([C@]4(N)C[C@](C)(O)C4)cc3)cn2)CC1` [Example A107, N-(trans-4-(2-((5-(4-(trans-1-amino-3-hydroxy-3-methylcyclobutyl)phenyl)-4-phenylpyridin-2-yl)amino)-2-oxoethyl)cyclohexyl)-N-isopropylpropionamide], the concentration for half-maximal inhibition (IC50) at Akt2 was determined as 230 nM; at p-Akt3 in WM115 cells, 76 nM; at Akt1, 8100 nM; at p-Akt2 in WM115 cells it was 2200 nM; on Akt3, 23 nM; at p-Akt1 in LNCaP cells, 7100 nM.
On to “N-(6-(4-(trans-1-amino-3-hydroxy-3-methylcyclobutyl)phenyl)-5-phenylpyridin-3-yl)-2-(trans-4-(N-ethylacetamido)cyclohexyl)acetamide [Example 119]”, for which the IC50 is 70 nM on Akt2; 22 nM on p-Akt3 in WM115 cells; 5900 nM on Akt1; 410 nM at p-Akt2 in WM115 cells; 5 nM on Akt3; 2300 nM on p-Akt1 in LNCaP cells.
